We go through 1 compound from patent publication US20230158034A1, “CO-TREATMENT WITH CDK4/6 AND CDK2 INHIBITORS TO SUPPRESS TUMOR ADAPTATION TO CDK2 INHIBITORS” (Pfizer Inc., priority 2020, published 2023).

The nature of the data set: Half-life of PF3600 in cells. Format: in vitro ADME.

One may read the half-life as the time needed for the level to fall by half in the phase considered. Lower therefore signals rapid decline. On to `C[C@@]1(O)CCC[C@H]1n1c(=O)c(C(F)F)cc2cnc(NC3CCN(S(C)(=O)=O)CC3)nc21` [PF3600, 6-(difluoromethyl)-8-[(1R,2R)-2-hydroxy-2-methylcyclopentyl]-2-{[1-(methylsulfonyl)-piperidin-4-yl]amino}pyrido[2,3-d]pyrimidin-7(8H)-one], for which the half-life was roughly 1800 min.
